Consider six compounds from patent EP0590998A1, “1-Styryl-3-t-butyl-1,3-propanedione derivative and external preparation for skin using the same” (SHISEIDO COMPANY LIMITED, priority 1992, dated 1994).

Data set [1] can be described thus: Ultraviolet ray absorption, spectrophotometer, 10ppm in ethanol. In kind it is physicochemical. The note with it: 10ppm in ethanol (99.5%), quartz cell 10mm×10mm. Further details: key: absorbance of 10 ppm ethanol solution, 10 mm quartz cell. Here is the method: Ultraviolet ray absorptivities of the compound 1,3,5 and comparison (2-hydroxy-4-methoxybenzophenone; UV-A absorbent) were measured according to the following method.
The compound 1,3,5 and the comparison compound were dissolved in ethanol (99.5%) so as to the concentration being 10ppm, and absorption were measured by using quartz cell (10mm×10mm) and the spectrophotometer UVIDEC-610 (JASCO CORPORATION).

A short description of data set [2]: Solubility of the 10% compounds in silicone base and squalane at room temperature. In kind it is physicochemical. Further details: key: The compounds which can completely be dissolved in the solvents are indicated as ○. The note with it: room temperature (25°C); for SOLUBILITY SILICONE KF56(10%): 10% compound in SILICONE KF56 (10cs); for SOLUBILITY SQUALANE(10%): 10% compound in squalane. The source says:
Solubilities of the following compounds 1 to 5 as examples of the 1-styryl-3-t-butyl-1,3-propanedione derivative and 2-hydroxy-4-methoxybenzophenone as a comparison are examined using the SILICONE KF56 (10cs; SHINETHU KACAKU INC.) as silicone base and squalane. Compound 1 : 1-styryl-3-t-butyl 1,3-propanedione Compound 2 : 1-p-methoxystyryl-3-t-butyl 1,3-propanedione Compound 3 : 1-p-(2-ethylhexyloxy)styryl-3-t-butyl 1,3-propanedione Compound 4 : 1-p-ethylstyryl-3-t-butyl1,3-propanedione compound 5 : 1-m-methylstyryl-3-t-butyl1,3-propanedione
The compounds which can completely be dissolved in the solvents are indicated as ○.

With `CCCCC(CC)COc1ccc(C=CC(=O)CC(=O)C(C)(C)C)cc1` (stereo not drawn) [Compound 3, 1-p-(2-ethylhexyloxy)styryl-3-t-butyl 1,3-propanedione], the absorption in data set [1] (WAVELENGTH 300) turned out to be 0.20; in data set [1] (WAVELENGTH 310) it was 0.28; in data set [1] (WAVELENGTH 320), 0.40; in data set [1] (WAVELENGTH 330) it was 0.56; in data set [1] (WAVELENGTH 340), 0.76; in data set [1] (WAVELENGTH 350), 0.92. Moreover, the absorption in data set [1] (WAVELENGTH 360) was found to be 0.97; in data set [1] (WAVELENGTH 370), 0.89; in data set [1] (WAVELENGTH 380), 0.65. Further, in data set [2], the “SOLUBILITY SILICONE KF56(10%)” value was “○”. Also, the “SOLUBILITY SQUALANE(10%)” value in data set [2] is reported as “○”.

For `COc1ccc(C(=O)c2ccccc2)c(O)c1` [COMPARISON 1, 2-hydroxy-4-methoxybenzophenone, reference compound], in data set [2], the “SOLUBILITY SILICONE KF56(10%)” value is reported as “DEPOSITION” and the “SOLUBILITY SQUALANE(10%)” value was “DEPOSITION”.

For `CCc1ccc(C=CC(=O)CC(=O)C(C)(C)C)cc1` [Compound 4, 1-p-ethylstyryl-3-t-butyl1,3-propanedione], in data set [2], the “SOLUBILITY SILICONE KF56(10%)” value was “○” and the “SOLUBILITY SQUALANE(10%)” value is reported as “○”.

Consider `COc1ccc(C=CC(=O)CC(=O)C(C)(C)C)cc1` [Compound 2, 1-p-methoxystyryl-3-t-butyl 1,3-propanedione], for which, in data set [2], the “SOLUBILITY SILICONE KF56(10%)” value is on record as “○” and the “SOLUBILITY SQUALANE(10%)” value is “○”.

Turning to `Cc1cccc(C=CC(=O)CC(=O)C(C)(C)C)c1` [Compound 5, 1-m-methylstyryl-3-t-butyl1,3-propanedione], the absorption came to 0.50 in data set [1] (WAVELENGTH 300); 0.72 in data set [1] (WAVELENGTH 310); 1.00 in data set [1] (WAVELENGTH 320); 1.26 in data set [1] (WAVELENGTH 330); 1.36 in data set [1] (WAVELENGTH 340); 1.24 in data set [1] (WAVELENGTH 350). The absorption in data set [1] (WAVELENGTH 360) was found to be 0.98; in data set [1] (WAVELENGTH 370), 0.54; in data set [1] (WAVELENGTH 380), 0.32. Also, in data set [2], the “SOLUBILITY SILICONE KF56(10%)” value is reported as “○”. The “SOLUBILITY SQUALANE(10%)” value in data set [2] is given as “○”.

Consider `CC(C)(C)C(=O)CC(=O)C=Cc1ccccc1` [Compound 1, 1-styryl-3-t-butyl 1,3-propanedione], for which the absorption in data set [1] (WAVELENGTH 300) came out at 0.60; in data set [1] (WAVELENGTH 310) it was 0.82; in data set [1] (WAVELENGTH 320), 1.08; in data set [1] (WAVELENGTH 330) it was 1.33; in data set [1] (WAVELENGTH 340), 1.40; in data set [1] (WAVELENGTH 350), 1.24. The absorption in data set [1] (WAVELENGTH 360) came out at 0.96; in data set [1] (WAVELENGTH 370), 0.50; in data set [1] (WAVELENGTH 380) it was 0.26. Besides, the “SOLUBILITY SILICONE KF56(10%)” value in data set [2] is on record as “○”. The “SOLUBILITY SQUALANE(10%)” value in data set [2] is “○”.
